Holding throughout (test): growth of human tumour cells (NCI), 48 h
Test [1] deals with CAKI-1 renal.
The subject of test [2] is COLO 205 colon.
Test [3] deals with EKVX NSCLC.
Test [4] relates to HCC-2998 colon.
The subject of test [5] is IGROV1 ovarian.
In test [6] the test system is RPMI-8226 leukemia.
Test [7] has as its system RXF 393 renal.
The test system of test [8] is U251 CNS.
In test [9] the test system is UACC-257 melanoma.
Test [10] relates to OVCAR-8 ovarian.

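Briefly, cells in 96-well plates were exposed to five compound concentrations for 48 h, and endpoints were estimated by linear interpolation. GI50 marks 50% less growth. TGI denotes the concentration required for complete inhibition of growth.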

In the case of `CCC/C=C\C=C\C1(NS(=O)(=O)c2ccc(C)cc2)CCC(C(C)(C)C)CC1` (centres undefined), the TGI is 61.9 µM in test [1]; 28.1 µM in [2]; 62.6 µM in test [3]; 34.3 µM in test [4]; 87.3 µM in [5]; 27.2 µM in test [6]. For the same compound, the figures for the TGI in [7], in test [8] and in [9] were 32.3 µM, 25.9 µM and 39 µM, respectively.
Take `O=C1CC(c2c(-c3ccccc3)[nH]c3ccccc23)C(=O)N1c1ccccc1` (centres undefined): the TGI in [1], in [3], in [4], in [5], in test [10] and in test [6] was > 100 µM in each case. Also, the TGI in test [7], in test [8] and in [9] was > 100 µM throughout.
With `CCCCCCCCCCCCCCCCCCNCc1ccc(Cl)cc1`, the GI50 was 1.96 µM in test [2]; 3.84 µM in test [3]; 4.58 µM in test [4]; 1.91 µM in [5]; 4.08 µM in [10]; 2.24 µM in test [6]. For the same compound, the GI50 was 3.39 µM in [7], 1.96 µM in [8] and 18.6 µM in test [9]. Also, the TGI in [2] is 4 µM; in [3], 18.7 µM; in test [4] it was 18.9 µM; in [5], 5.24 µM; in test [10] it was 16.6 µM; in test [6] it was 5.71 µM. Moreover, the TGI in [7] is 15.8 µM; in test [8] it was 3.85 µM; in [9], 36 µM.
On to `O=c1c2ccccc2[nH]c2c(O)ccc(O)c12`, for which the TGI in test [1] was 30.4 µM; in test [3], > 62.1 µM; in [4], > 100 µM; in [5] it was 35.3 µM; in test [10] it was 35.2 µM; in [6], 70.1 µM. Moreover, the values for the TGI in test [7], in test [8] and in test [9] were 25.8 µM, 21.6 µM and 34.6 µM, respectively.
In the case of `C/C(=N\NC(=O)C[N+](C)(C)C)c1sc(-c2cccnc2)nc1C`, the TGI in test [2], in [3], in test [4], in test [5], in test [10] and in [6] was > 100 µM throughout. For the same compound, the TGI in test [7], in test [8] and in [9] was > 100 µM each time.
Take `COCCOCCOCc1n(Cc2ccc3ccccc3c2)c2ccccc2[n+]1Cc1ccc2ccccc2c1`: the GI50 in [2] was 0.27 µM; in [3], 1.04 µM; in test [4] it was 0.56 µM; in test [5], 0.328 µM; in test [10], 0.421 µM; in test [6], 0.117 µM. The values for the GI50 in test [7], in test [8] and in [9] were 0.318 µM, 0.352 µM and 0.289 µM, respectively. In addition, the TGI in [2] came to 1.15 µM; in test [3] it was 2.68 µM; in [4] it was 2.06 µM; in test [5] it was 1.55 µM; in test [10], 1.74 µM; in test [6], 1.15 µM. In addition, the figures for the TGI in test [7], in [8] and in test [9] were 1.58 µM, 1.48 µM and 0.988 µM, respectively.
In the case of `CCOC(=O)C1C=C2O[C@@H]3OC4(CCCCC4)O[C@@H]3C2C2C(=O)CCC(=O)[C@@]12C(=O)OC` (some centres undefined), the TGI in [1], in test [2], in test [3], in test [4], in test [5] and in [10] was > 100 µM throughout. Further, the TGI in test [6], in test [8] and in test [9] was > 100 µM in each case.
With `O=C1N2Cc3c4ccc5c3CN3C(=O)N6Cc7c(ccc(c7CN1C6(c1ccccc1)C23c1ccccc1)OCCOCCOc1cc(Br)c(Br)cc1OCCOCCO4)OCCOCCOc1cc(Br)c(Br)cc1OCCOCCO5` (centres undefined), the TGI in [1], in test [3], in test [4], in test [5], in test [10] and in test [6] was > 100 µM throughout. Also, the TGI in [7], in test [8] and in [9] was > 100 µM in each case.
Turning to `CCC1C(C)C=NN1c1nc(N)nc(C(C#N)=Nc2ccc(N(C)C)cc2)n1` (centres undefined), the GI50 in test [1] is 9.06 µM; in [3] it was 11.3 µM; in test [4] it was 9.93 µM; in test [5] it was 30.9 µM; in [10], 10.6 µM; in test [6], 2.55 µM. The GI50 in test [7] was 10.3 µM; in [8] it was 8.93 µM; in [9], > 50 µM. Moreover, the TGI in [1] is 20.8 µM; in test [3] it was 32.2 µM; in test [4], 19.6 µM; in test [5], > 50 µM; in test [10], 31 µM; in [6], > 50 µM. Moreover, the TGI in [7] is 24 µM; in [8] it was 16.8 µM; in test [9], > 50 µM.
For `O=C(Nc1cccc(-n2cc(-c3ccncc3)c(-c3ccc(O)c(Cl)c3)n2)c1)c1ccc2c(c1)OCCO2`, the GI50 is 6.34 µM in test [1]; 89.2 µM in [2]; > 100 µM in [4]; > 100 µM in test [5]; 3.67 µM in [10]; 2.19 µM in test [6]. For the same compound, the results for the GI50 in test [7], in test [8] and in [9] were 3.02 µM, 4.02 µM and > 100 µM, respectively. The TGI in [1], in [2], in [4], in [5], in test [10] and in [6] was > 100 µM throughout. For the same compound, the TGI in [7], in test [8] and in test [9] was > 100 µM throughout.
Take `Cc1cccc(C)c1NC(=O)CCc1nnc2s/c(=C\c3ccc(N(C)C)cc3)c(=O)n12`: the TGI in test [1], in test [2], in test [4], in test [5], in test [10] and in [6] was > 100 µM each time. The TGI in [7], in test [8] and in [9] was > 100 µM in each case.
For `CCOC(=O)C(Cc1c[nH]c2cc(N(CCO)CCO)ccc12)(NC(C)=O)C(=O)OCC`, the GI50 in [2] is 274 µM; in test [3], > 1000 µM; in test [4], > 1000 µM; in [5] it was 445 µM; in test [10] it was 697 µM; in test [6] it was 65.3 µM. The GI50 in [7] was 128 µM; in test [8] it was 309 µM; in [9], > 1000 µM. The TGI in [2] was > 1000 µM; in test [3], > 1000 µM; in [4] it was > 1000 µM; in test [5], > 1000 µM; in test [10] it was > 1000 µM; in test [7], 719 µM. Further, the TGI in test [8] and in [9] was > 1000 µM each time.
Consider `O=c1c2cc(Br)cc(Br)c2nc(CCCl)n1-c1ccc(O)c([N+](=O)[O-])c1`, for which the TGI in [2] was 36.3 µM; in test [3], 75.8 µM; in test [4], 32.4 µM; in [5], 40.4 µM; in [10], 41.6 µM; in test [6], 56.1 µM. Also, the TGI was 32.9 µM in test [8] and 29.4 µM in test [9].
With `COc1cc(Cl)cc(-c2nn(-c3cccc(NC(=O)Nc4cccc(C(F)(F)F)c4)c3)cc2-c2ccncc2)c1`, the GI50 in [1] was 1.29 µM; in test [2], 1.53 µM; in test [4], 3.47 µM; in test [5] it was 2.86 µM; in test [10], 1.12 µM; in test [6], 0.43 µM. Moreover, the GI50 was 1.4 µM in test [7], 0.879 µM in [8] and 1.75 µM in test [9]. In addition, the TGI in [1] is 8.9 µM; in [2] it was 3.17 µM; in [4] it was 14 µM; in test [5] it was 22.7 µM; in test [10], 4.88 µM; in test [6] it was 2.3 µM. Moreover, the values for the TGI in test [7], in test [8] and in [9] were 4.35 µM, 2.91 µM and 4.65 µM, respectively.
For the compound `COc1ccc(/C(C)=N/NC(=O)CSc2nc3ccccc3c(=O)n2CCc2ccc(S(N)(=O)=O)cc2)cc1`, the GI50 in test [1] is 2.07 µM; in test [3], 2.85 µM; in test [4], 9.26 µM; in [5] it was 1.97 µM; in [6] it was 2.02 µM; in [7], 1.72 µM. Also, the GI50 in test [9] is 2.39 µM. For the same compound, the TGI was 4.53 µM in test [1]; 12.8 µM in [3]; 28.6 µM in test [4]; 3.98 µM in test [5]; 10.6 µM in test [6]; 3.29 µM in test [7]. Besides, in [9], the TGI worked out at 5.57 µM.
On to `CC1=C(C(=O)NCc2ccccc2)C(c2ccc(Cl)c(Cl)c2)C(C(=O)NCc2ccccc2)=C(C)N1`, for which the TGI in [3], in test [4], in test [5], in test [10], in test [6] and in test [7] was > 100 µM throughout. In addition, the TGI in [8] and in test [9] was > 100 µM in each case.
For the compound `N#Cc1c(-c2ccccc2)cc(-c2ccc(N)cc2)[nH]c1=O`, the TGI in [2], in test [3], in test [4], in test [5], in test [10] and in test [6] was > 100 µM in each case. Further, the TGI in [7], in test [8] and in test [9] was > 100 µM in each case.
For `COc1ccc(C(C)c2cc(OC)c(OC)c(OC)c2)cc1` (centres undefined), the GI50 was 0.109 µM in test [2]; 0.373 µM in [3]; 0.21 µM in [4]; 0.278 µM in test [5]; 0.263 µM in [10]; 0.209 µM in [6]. Moreover, the GI50 was 0.126 µM in test [7], 0.173 µM in test [8] and 32.3 µM in [9]. Also, the TGI in test [2] is 0.325 µM; in [3] it was > 50 µM; in test [4], > 50 µM; in test [5], > 50 µM; in test [10], > 50 µM; in test [6], > 50 µM. Besides, the TGI in test [7], in test [8] and in [9] was > 50 µM in each case.
In the case of `CC1=CC(C)(c2c[nH]c3ccccc23)CC(C)(C)c2c1[nH]c1ccccc21` (centres undefined), the TGI in test [3] was 39.8 µM; in test [4] it was 30.4 µM; in test [5], 36 µM; in [10], 29.8 µM; in [6] it was 38.9 µM; in test [7], 26.6 µM. The values for the TGI in test [8] and in test [9] were 32 µM and 41.2 µM, respectively.
`CCO/S(=N/S(=O)(=O)c1ccccc1)c1ccccc1[N+](=O)[O-]` (centres undefined): the TGI in test [1], in [2], in [3], in test [4], in test [5] and in test [10] was > 100 µM throughout. Also, the TGI in [6], in test [8] and in [9] was > 100 µM throughout.
As to `N#Cc1cnc2cc(OC[C@@H](O)CO)c(NC(=O)C3CCCC3)cc2c1Nc1ccc(OCc2cccc(F)c2)c(Cl)c1`, the GI50 in test [1] is 5.61 µM; in [2] it was 4.28 µM; in test [3], 1.33 µM; in test [4], 1.1 µM; in [10], 1.16 µM; in test [6], 0.728 µM. In addition, the GI50 in test [7] was 1.29 µM; in [8], 6.79 µM. The TGI was > 50 µM in test [1]; 26 µM in test [2]; 6.74 µM in test [3]; 3.38 µM in [4]; 3.01 µM in test [10]; 3.12 µM in test [6]. The TGI in test [7] was determined as 3.41 µM; in test [8] it was 15.6 µM.
As to `Cc1cc(N(CCC#N)CCC#N)ccc1N=Nc1cc(Cl)ccc1Cl`, the TGI in [1] came to 9.68 µM; in [2], 4.97 µM; in test [3] it was 26.5 µM; in [4] it was 32.9 µM; in test [5], 28.6 µM; in [6], 34.7 µM. For the same compound, the TGI in [7] is 23 µM; in test [8] it was 33.5 µM; in test [9] it was 23.8 µM.

These data come from PubChem BioAssay (NCI).
